Holding throughout (type): in vivo
One series concerns Scirpus juncoides. Description: Test Example 1: herbicidal activity, application before weed generation in submerged conditions (symbol B). The conditions noted are these: application herbicide amount 320 g/ha. In outline:
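Pre-emergence, paddy conditions: emulsifiable formulation diluted in water, dosed onto floodwater (4 cm depth) on sowing day. Alluvial soil; weeds sown mixed; rice transplanted at 2.5-leaf stage. Greenhouse 25–30 °C, 3 wk. Score 0–5 (5 = ≥90% kill, 0 = ≤5%).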

The next series concerns Alopecurus myosuroides. Description: Test Example 4: herbicidal effect by soil treatment (symbol J). Put shortly:
(§1)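 Seeds were sown in sterilized diluvial soil, covered with about 1.5 cm of soil, and the soil surface was sprayed with a water-diluted emulsion of the compound at a predetermined rate. Plants grew in a greenhouse at 25° C. to 30° C.; effects were scored visually 3 weeks after application.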

The subject of series [1] is Abutilon theophrasti. As to the kind of experiment: Test Example 4: herbicidal effect by soil treatment (symbol M). In outline:
as §1

A further series concerns corn. As to the kind of experiment: Test Example 4: effect on crop by soil treatment (symbol c). The note with it: for c: corn, effect grade on crop: 320 g/ha; for c: corn, effect on crop grade: application herbicide amount 320 g/ha. In outline:
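Sterilized diluvial soil, spot sowing, ~1.5 cm soil cover; greenhouse 25–30° C.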

The next series relates to Digitaria ciliaris. As to the kind of experiment: Test Example 5: herbicidal effect by foliage application, plastic box (symbol F). The conditions noted are these: 320 g/ha, 3 weeks after application. In outline:
(§2)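 Post-emergence spray; diluvial soil (sterilized), ~1.5 cm seed cover; greenhouse 25–30° C; 14-day-old plants; water-diluted emulsion at predetermined dose; visual score at 3 wk post-treatment.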

In series [2] the test system is Abutilon theophrasti. Description: Test Example 5: herbicidal effect by foliage application, plastic box (symbol M). The conditions noted are these: 320 g/ha, 3 weeks after application. In outline:
as §2

A further series has as its system Amaranthus retroflexus. As to the kind of experiment: Test Example 5: herbicidal effect by foliage application, plastic box (symbol N). The note with it: 320 g/ha, 3 weeks after application. Put shortly:
as §2

In a further series the test system is Galium spurium. As to the kind of experiment: Test Example 5: herbicidal effect by foliage application, plastic box (symbol Q). The note with it: 320 g/ha, 3 weeks after application. In outline: as §2
The next series concerns Cyperus difformis. Description: Test Example 3: herbicidal effect by foliage application, Wagner pot (symbol E). The note with it: application herbicide amount 320 g/ha. In outline: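 Rating at 3 weeks post-spray, by defined criteria. Treatment: emulsion diluted with water to a predetermined amount, applied evenly to foliage of 14-day-old plants raised in alluvial soil flooded 0.1–0.5 cm deep at 25–30 °C, rice co-sown.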

[3] abbreviates: application herbicide amount 320 g/ha.

Structures are written as SMILES.

`CON=C(C)CC1CC(OS(=O)(=O)CC[Si](C)(C)C)=C(c2c(C)cc(C)cc2C)C1=O` (centres unmarked) [1-144]: in the series with Scirpus juncoides, the “Herbicidal effect grade, B: Scirpus juncoides” value (“Herbicidal effect grade, B” below) is reported as 5 (Herbicidal ratio of 90% or more (almost completely withered)). Moreover, the “J: Alopecurus myosuroides, herbicidal effect grade” value (“J: Alopecurus myosuroides” below) in the series on Alopecurus myosuroides (320 g/ha) is 4 (Herbicidal ratio of 70% or higher and lower than 90%). Also, the “M: Abutilon theophrasti, herbicidal effect grade” value with Abutilon theophrasti [1] (320 g/ha) is reported as 0 (Herbicidal ratio of 5% or lower (almost no effect)). The “c: corn, effect grade on crop” value in the series on corn is 3 (Herbicidal ratio of 40% or higher and lower than 70%). For the same compound, the “F: Digitaria ciliaris, herbicidal effect (criteria 0-5)” value (“F: Digitaria ciliaris … (criteria 0-5)” for short) in the series on Digitaria ciliaris is recorded as 5 (Herbicidal ratio of 90% or more (almost completely withered)). In addition, the “M: Abutilon theophrasti, herbicidal effect (criteria 0-5)” value in the series with Abutilon theophrasti [2] is 4 (Herbicidal ratio of 70% or higher and lower than 90%). Besides, the “N: Amaranthus retroflexus, herbicidal effect (criteria 0-5)” value in the series with Amaranthus retroflexus is 1 (Herbicidal ratio of 5% or higher and lower than 20%). Further, in the series with Galium spurium, the “Q: Galium spurium, herbicidal effect (criteria 0-5)” value (“Q: Galium spurium … (criteria 0-5)” for short) was 2 (Herbicidal ratio of 20% or higher and lower than 40%).

For `CON=C(C)CC1CC(OC(=O)C(C)Oc2ccc(Oc3ccc(Cl)cc3Cl)cc2)=C(c2c(C)cc(C)cc2C)C1=O` (centres unmarked) [1-163], in the series on Scirpus juncoides, the “Herbicidal effect grade, B” value was 4 (Herbicidal ratio of 70% or higher and lower than 90%). Further, in the series with Cyperus difformis, the “herbicidal effect on E, grade 0-5” value is reported as 5 (Herbicidal ratio of 90% or more (almost completely withered)). Also, the “J: Alopecurus myosuroides” value in the series with Alopecurus myosuroides (320 g/ha) is 5 (Herbicidal ratio of 90% or more (almost completely withered)). The “c: corn, effect grade on crop” value with corn was 1 (Herbicidal ratio of 5% or higher and lower than 20%). In the series on Digitaria ciliaris, the “F: Digitaria ciliaris, herbicidal effect grade” value is on record as 5 (Herbicidal ratio of 90% or more (almost completely withered)). In addition, the “M: Abutilon theophrasti, herbicidal effect grade” value in the series with Abutilon theophrasti [2] was 4 (Herbicidal ratio of 70% or higher and lower than 90%). For the same compound, the “N: Amaranthus retroflexus, herbicidal effect grade” value in the series on Amaranthus retroflexus was 3 (Herbicidal ratio of 40% or higher and lower than 70%). Also, the “Q: Galium spurium, herbicidal effect grade” value with Galium spurium is 3 (Herbicidal ratio of 40% or higher and lower than 70%).

Consider `CON=C(C)CC1CC(OC(=O)N2CCCC2)=C(c2c(C)cc(C)cc2C)C1=O` (centres unmarked) [1-150], for which the “Herbicidal effect grade, B” value with Scirpus juncoides was 3 (Herbicidal ratio of 40% or higher and lower than 70%). In addition, the “J: Alopecurus myosuroides” value in the series on Alopecurus myosuroides (320 g/ha) is on record as 5 (Herbicidal ratio of 90% or more (almost completely withered)). The “c: corn, effect grade on crop” value with corn was 0 (Herbicidal ratio of 5% or lower (almost no effect)). For the same compound, in the series with Digitaria ciliaris, the “F: Digitaria ciliaris … (criteria 0-5)” value is on record as 5 (Herbicidal ratio of 90% or more (almost completely withered)). Further, the “M: Abutilon theophrasti, herbicidal effect (criteria 0-5)” value in the series with Abutilon theophrasti [2] is 3 (Herbicidal ratio of 40% or higher and lower than 70%). Also, the “N: Amaranthus retroflexus, herbicidal effect (criteria 0-5)” value with Amaranthus retroflexus is given as 0 (Herbicidal ratio of 5% or lower (almost no effect)). Further, in the series with Galium spurium, the “Q: Galium spurium … (criteria 0-5)” value is 0 (Herbicidal ratio of 5% or lower (almost no effect)).

Consider `COCCOC(=O)OC1=C(c2c(C)cc(C)cc2C)C(=O)C(CC(C)=NOC)C1` (centres unmarked) [1-147], for which the “Herbicidal effect grade, B” value in the series with Scirpus juncoides is listed as 5 (Herbicidal ratio of 90% or more (almost completely withered)). Further, the “J: Alopecurus myosuroides” value in the series with Alopecurus myosuroides (320 g/ha) is reported as 5 (Herbicidal ratio of 90% or more (almost completely withered)). In addition, the “M: Abutilon theophrasti, herbicidal effect grade” value in the series with Abutilon theophrasti [1] (320 g/ha) was 5 (Herbicidal ratio of 90% or more (almost completely withered)). Further, the “c: corn, effect grade on crop” value with corn is listed as 5 (Herbicidal ratio of 90% or more (almost completely withered)). Further, in the series with Digitaria ciliaris, the “F: Digitaria ciliaris … (criteria 0-5)” value is 5 (Herbicidal ratio of 90% or more (almost completely withered)). Further, the “M: Abutilon theophrasti, herbicidal effect (criteria 0-5)” value in the series on Abutilon theophrasti [2] is 4 (Herbicidal ratio of 70% or higher and lower than 90%). Further, in the series with Amaranthus retroflexus, the “N: Amaranthus retroflexus, herbicidal effect (criteria 0-5)” value was 1 (Herbicidal ratio of 5% or higher and lower than 20%). In the series on Galium spurium, the “Q: Galium spurium … (criteria 0-5)” value was 4 (Herbicidal ratio of 70% or higher and lower than 90%).

Take `CON=C(C)CC1CC(OS(=O)(=O)C2CC2)=C(c2c(C)cc(C)cc2C)C1=O` (centres unmarked) [1-143]: the “Herbicidal effect grade, B” value in the series with Scirpus juncoides was 4 (Herbicidal ratio of 70% or higher and lower than 90%). In addition, the “J: Alopecurus myosuroides” value with Alopecurus myosuroides (320 g/ha) is 2 (Herbicidal ratio of 20% or higher and lower than 40%). Besides, in the series with Abutilon theophrasti [1] (320 g/ha), the “M: Abutilon theophrasti, herbicidal effect grade” value was 0 (Herbicidal ratio of 5% or lower (almost no effect)). Further, the “c: corn, effect grade on crop” value in the series on corn was 0 (Herbicidal ratio of 5% or lower (almost no effect)). Moreover, in the series on Digitaria ciliaris, the “F: Digitaria ciliaris … (criteria 0-5)” value was 5 (Herbicidal ratio of 90% or more (almost completely withered)). Also, the “M: Abutilon theophrasti, herbicidal effect (criteria 0-5)” value in the series on Abutilon theophrasti [2] is 1 (Herbicidal ratio of 5% or higher and lower than 20%). Further, the “N: Amaranthus retroflexus, herbicidal effect (criteria 0-5)” value in the series with Amaranthus retroflexus is 1 (Herbicidal ratio of 5% or higher and lower than 20%). Moreover, in the series with Galium spurium, the “Q: Galium spurium … (criteria 0-5)” value is 0 (Herbicidal ratio of 5% or lower (almost no effect)).

Turning to `CON=C(C)CC1CC(OS(=O)(=O)CCCCl)=C(c2c(C)cc(C)cc2C)C1=O` (centres unmarked) [1-142], the “Herbicidal effect grade, B” value in the series on Scirpus juncoides is 5 (Herbicidal ratio of 90% or more (almost completely withered)). For the same compound, the “J: Alopecurus myosuroides” value in the series with Alopecurus myosuroides (320 g/ha) was 5 (Herbicidal ratio of 90% or more (almost completely withered)). Besides, in the series with Abutilon theophrasti [1] (320 g/ha), the “M: Abutilon theophrasti, herbicidal effect grade” value was 0 (Herbicidal ratio of 5% or lower (almost no effect)). Also, the “c: corn, effect grade on crop” value with corn was 0 (Herbicidal ratio of 5% or lower (almost no effect)). The “F: Digitaria ciliaris … (criteria 0-5)” value with Digitaria ciliaris was 5 (Herbicidal ratio of 90% or more (almost completely withered)). In addition, the “M: Abutilon theophrasti, herbicidal effect (criteria 0-5)” value with Abutilon theophrasti [2] is 4 (Herbicidal ratio of 70% or higher and lower than 90%). Further, in the series with Amaranthus retroflexus, the “N: Amaranthus retroflexus, herbicidal effect (criteria 0-5)” value is listed as 0 (Herbicidal ratio of 5% or lower (almost no effect)). Also, the “Q: Galium spurium … (criteria 0-5)” value in the series on Galium spurium is 3 (Herbicidal ratio of 40% or higher and lower than 70%).

For `CON=C(C)CC1CC(O)=C(c2c(C)cc(-c3ccc(C)cc3)cc2C)C1=O` (mixture of isomers) [6-018], in the series on Scirpus juncoides, the “Herbicidal effect grade, B” value was 5 (Herbicidal ratio of 90% or more (almost completely withered)). For the same compound, the “herbicidal effect on E, grade 0-5” value in the series on Cyperus difformis is 5 (Herbicidal ratio of 90% or more (almost completely withered)). In the series on Alopecurus myosuroides (setting [3]), the “J: Alopecurus myosuroides” value is 5 (Herbicidal ratio of 90% or more (almost completely withered)). Besides, the “M: Abutilon theophrasti, herbicidal effect grade” value in the series with Abutilon theophrasti [1] (setting [3]) and with Abutilon theophrasti [2] was 0 (Herbicidal ratio of 5% or lower (almost no effect)) in each case. The “c: corn, effect on crop grade” value with corn is recorded as 0 (Herbicidal ratio of 5% or lower (almost no effect)). Moreover, the “F: Digitaria ciliaris, herbicidal effect grade” value in the series with Digitaria ciliaris is 5 (Herbicidal ratio of 90% or more (almost completely withered)). Moreover, the “N: Amaranthus retroflexus, herbicidal effect grade” value in the series on Amaranthus retroflexus is on record as 0 (Herbicidal ratio of 5% or lower (almost no effect)).

Take `CON=C(C)CC1CC(O)=C(c2c(C)cc(-c3ccc(OC)cc3)cc2C)C1=O` (mixture of isomers) [6-017]: the “Herbicidal effect grade, B” value in the series with Scirpus juncoides is 1 (Herbicidal ratio of 5% or higher and lower than 20%). Besides, in the series on Cyperus difformis, the “herbicidal effect on E, grade 0-5” value was 4 (Herbicidal ratio of 70% or higher and lower than 90%). The “M: Abutilon theophrasti, herbicidal effect grade” value in the series on Abutilon theophrasti [1] (setting [3]) and in the series on Abutilon theophrasti [2] was 0 (Herbicidal ratio of 5% or lower (almost no effect)) throughout. The “c: corn, effect on crop grade” value in the series on corn is 0 (Herbicidal ratio of 5% or lower (almost no effect)). For the same compound, the “F: Digitaria ciliaris, herbicidal effect grade” value with Digitaria ciliaris is reported as 5 (Herbicidal ratio of 90% or more (almost completely withered)). Also, in the series with Amaranthus retroflexus, the “N: Amaranthus retroflexus, herbicidal effect grade” value is listed as 0 (Herbicidal ratio of 5% or lower (almost no effect)). Also, the “Q: Galium spurium, herbicidal effect grade” value in the series on Galium spurium was 0 (Herbicidal ratio of 5% or lower (almost no effect)).

On to `C=Cc1cc(C)c(C2=C(O)CC(CC(C)=NOC)C2=O)c(C)c1` (mixture of isomers) [6-031], for which the “Herbicidal effect grade, B” value in the series on Scirpus juncoides was 0 (Herbicidal ratio of 5% or lower (almost no effect)). Besides, the “herbicidal effect on E, grade 0-5” value in the series on Cyperus difformis was 2 (Herbicidal ratio of 20% or higher and lower than 40%). Further, in the series on Alopecurus myosuroides (setting [3]), the “J: Alopecurus myosuroides” value is 0 (Herbicidal ratio of 5% or lower (almost no effect)). Moreover, the “M: Abutilon theophrasti, herbicidal effect grade” value with Abutilon theophrasti [1] (setting [3]) is 0 (Herbicidal ratio of 5% or lower (almost no effect)); in the series on Abutilon theophrasti [2] it was 2 (Herbicidal ratio of 20% or higher and lower than 40%). Further, the “c: corn, effect on crop grade” value in the series with corn is recorded as 0 (Herbicidal ratio of 5% or lower (almost no effect)). Also, the “F: Digitaria ciliaris, herbicidal effect grade” value in the series with Digitaria ciliaris was 5 (Herbicidal ratio of 90% or more (almost completely withered)). Besides, the “N: Amaranthus retroflexus, herbicidal effect grade” value with Amaranthus retroflexus is reported as 0 (Herbicidal ratio of 5% or lower (almost no effect)).

These data come from US11000033B2, “Ketone or oxime compound, and herbicide” (NISSAN CHEMICAL CORPORATION, priority 2014, dated 2021).
